Tests used:
[1] = system: wild-type HSV1-tk and HSV1-sr39tk PET reporter genes; assay: In vivo imaging of PET reporter genes with reporter probes
Description: Two main categories of substrates, uracil nucleoside derivatives labelled with radioactive iodine (e.g., I-labelled 2′fluoro-2′-deoxy-1-β-D-arabinofura-nosyl-5-iodo-uracilc(FIAU)), and acycloguanosine derivatives labelled with radioactive ^18F-fluorine (e.g., 9-[(4-[^18F]-fluoro-3-hydroxymethylbutyl)guanine (FHBG) and 8-[^18F]fluropenciclorivr (FPCV)), have been investigated as reporter probes for imaging HSV1-tk reporter gene expression.

[2] = system: HSV1-sr39tk reporter gene expression in cardiac allografts; assay: Micro-PET imaging of [18F]FHBG / [18F]FDG accumulation; type: in vivo; conditions: recipient rabbit with gene transfected donor heart in the neck
Protocol: Micro-PET scan was performed on postoperative days 2, 4, 6, 8, 12, 20, and 28 in the IL-10 gene therapy group and days 2, 4, 6, and 8 in the control group. Recipient rabbits were intravenously injected with 1 mCi of [^18F]FHBG PET reporter probe. After a 1-h rest to allow for tracer uptake and clearance, the rabbits were imaged with a micro-PET-P4 (Primate P4; Concorde Microsystems, Inc., Knoxville, Tenn., USA) for 45 min over the neck and chest. Micro-PET image data were reconstructed by filtered back-projection and were reoriented into short, vertical, and horizontal long axis slices. From regions of interest on the anterolateral wall (short axis cut), derived counts/pixel/min were converted to counts/ml/min using a calibration constant obtained from scanning a cylindrical phantom. The regions-of-interest (ROI) counts/ml/min were converted to counts/g/min (assuming a tissue density of 1 g/ml) and divided by the injected dose to obtain an image ROI-derived [^18F]FHBG percentage injected dose per gram of heart (% ID/g). The total myocardial accumulation of [^18F]FHBG was corrected for background activity in each region of interest, summed for the 12 slices, and expressed as % ID=(total activity in 12 regions of interest (ROI), left ventricle (LV) (MBq)-total activity in 12 ROI BG (MBq))/injected dose (MBq)×100. […]

Nc1nc2c(ncn2CCC(CO)C[18F])c(=O)[nH]1 (stereo not drawn) [[^18F]FHBG, 9-(4-[^18F]fluoro-3-hydroxymethylbutyl)guanine]
effectiveness as probe for in vivo imaging, compared with FPCV [1]: more effective probe
localization of probe activity on micro-PET [2]: only in targeted donor heart in the neck

2-[^18F]fluoro-2-deoxy-d-glucose [[^18F]FDG]
localization of probe activity on micro-PET [2]: in the donor heart as well as in the recipient's heart and skeletal muscle of limb and neck

From patent publication US20090169474A1, “METHOD FOR NONINVASNELY AND QUANTITATIVELY MONITORING THERAPEUTIC AND DIAGNOSTIC TRANSGENE EXPRESSION INDUCED BY EX VNO AND IN VNO GENE TARGETING IN ORGANS, TISSUES AND CELLS” (The Regentsf of the University of California, priority 2006, published 2009)
